According to patent US10722484B2, “Methods of cancer treatment” (K-Gen, Inc., priority 2016, dated 2020):
Where two headings read alike, the source gives them in different places.

Experiments:
THP1 = experiment: Proliferation assay (CellTiter Glo); assay type: cell-based, human; settings: 96 hours; for EC50: Homo sapiens, THP-1
Description: (§1) The dose range for most compounds was 4.6 nM-30 μM. The dose ranges for some compounds were adjusted downward to 0.46 nM-3 μM or 0.08 nM-0.5 μM or 0.03 nM-0.2 μM. […] The results are shown in Tables 3-6 for pancreatic cancer, lung cancer, colon/gastric cancer, and leukemia.

HL60 = experiment: Proliferation assay (CellTiter Glo); assay type: cell-based, human; settings: 96 hours; for EC50: Homo sapiens, HL-60
Description: as §1

MiaPaCa-2 = experiment: Proliferation assay (CellTiter Glo); assay type: cell-based; settings: 96 hours; for EC50: Homo sapiens, MIA PaCa-2
[1] = system: pancreatic, lung, colon and leukemia cancer cell lines; experiment: Proliferation assay, summary over the panel of cancer cell lines; assay type: cell-based; settings: comparison with prostratin
Description: PKC activator compounds were tested in a panel of K-RAS mutant pancreatic, lung, and colon cancer cell lines, as well as a number of leukemia cell lines having either mutant K-RAS or N-RAS.
as §1

LS180 = experiment: Proliferation assay (CellTiter Glo); assay type: cell-based; settings: 96 hours
Description: as §1

H727 = experiment: Proliferation assay (CellTiter Glo); assay type: cell-based; settings: 96 hours; for EC50: Homo sapiens, NCI-H727
Description: as §1

HCT116 = experiment: Proliferation assay (CellTiter Glo); assay type: cell-based; settings: 96 hours; for EC50: Homo sapiens, HCT-116
Description: as §1

AGS = experiment: Proliferation assay (CellTiter Glo); assay type: cell-based; settings: 96 hours; for EC50: Homo sapiens
Description: as §1

KP-4 = experiment: Proliferation assay (CellTiter Glo); assay type: cell-based; settings: 96 hours; for EC50: Homo sapiens
Description: as §1

H358 = experiment: Proliferation assay (CellTiter Glo); assay type: cell-based; settings: HE58, 96 hours; for EC50: Homo sapiens, NCI-H358
Description: as §1

H441 = experiment: Proliferation assay (CellTiter Glo); assay type: cell-based; settings: 96 hours; for EC50: Homo sapiens, NCI-H441
Description: as §1

[2] = system: Mino (Mantle cell lymphoma); experiment: Combination viability/proliferation assays; settings: Homo sapiens, MINO, read-out: inhibition on proliferation, alone
Description: Briefly, cells at density of 1,000-10,000 cells/well in 96-well plates or 200-1600 cells/well in 384-well plates were seeded and incubated at 37° C. for 24 hours before addition of compounds. A series of 9 different concentrations of compound stocks (500×) were prepared by 3-fold serial dilutions in DMSO. […] After 96 hours of incubation, 35 μL or 50 μL of CellTiter Glo reagent (Promega) was added to each well and luminescence was measured after 10 minutes using EnVision (PerkinElmer). Luminescence from cells treated with DMSO alone was set as Max and % of inhibition was calculated as follows: Inhibition %=(Max-Sample value)/Max*100. Data were analyzed using XLfit software (ID Business Solutions Ltd.) or GraphPad software and IC50, relative IC50, and % of top inhibition were calculated.
Various drugs or compounds (Table 10) were screened and assayed in 384-well plates as 9-point 3-fold dilution series alone and in combination with 2-3 doses of the specified PKC activator compounds (e.g., K101A, K101E, and K102). The top concentration for the tested PKC activator compound was set at roughly the IC50 when the same testing compound was used as a single agent assayed in the same cell line. The next dose was either 3-fold or 10-fold dilution from the top concentration.
The PKC activating agents (e.g., K101A, K101E, and K102) in combination with other chemotherapeutic agents, including standard chemotherapies and certain chemotherapeutic agents targeting certain cell signaling pathways, were also examined on cancer cells other than lung cancer cells.

For `C/C=C(/C)C(=O)O[C@H]1C(C)=C[C@]23C(=O)[C@@H](C=C(CO)[C@@H](O)[C@]12O)[C@H]1[C@@H](C[C@H]3C)C1(C)C` [Compound K102, ingenol-3-angelate], the EC50 (THP1; THP1 (N-RAS: G12D), absolute EC50, read-out: Ab EC50) was 15 nM, the EC50 (THP1; THP1, relative EC50, read-out: Re EC50) was 12 nM and the “Top Inhibition %” value (THP1; THP1, % of top inhibition) was 52.4%. The “Top Inhibition %” value (HL60; HL60, % of top inhibition) was 60.1%, the EC50 (HL60; HL60 (N-RAS: Q61L), absolute EC50, read-out: Ab EC50) was 15 nM and the EC50 (HL60; HL60, relative EC50, read-out: Re EC50) was 14 nM. The EC50 (MiaPaCa-2; MiaPaCa-2 (K-RAS: G12C), absolute EC50, read-out: Ab EC50) was 13 nM, the EC50 (MiaPaCa-2; MiaPaCa-2, relative EC50, read-out: Re EC50) was 9 nM and the “Top Inhibition %” value (MiaPaCa-2; MiaPaCa-2, % of top inhibition) was 79.3%. The “potency in proliferation inhibition relative to prostratin” value [1] was “more potent”, the EC50 (LS180; Homo sapiens, LS180 (K-RAS: G12D), absolute EC50, read-out: Ab EC50) was > 30000 nM and the “Top Inhibition %” value (LS180; LS180, % of top inhibition) was 9.3%. The “Top Inhibition %” value (H727; H727, % of top inhibition) was 61.0%, the EC50 (H727; H727 (K-RAS: G12V), absolute EC50, read-out: Ab EC50) was 22 nM and the EC50 (H727; H727, relative EC50, read-out: Re EC50) was 4.3 nM. For the same compound, the “Top Inhibition %” value (HCT116; HCT116, % of top inhibition) was 23.2%, the EC50 (HCT116; HCT116 (K-RAS: G13D), absolute EC50, read-out: Ab EC50) was > 3000 nM and the EC50 (HCT116; HCT116, relative EC50, read-out: Re EC50) was 21 nM. For the same compound, the “Top Inhibition %” value (AGS; AGS, % of top inhibition) was 42.9%, the EC50 (AGS; AGS (gastric, K-RAS: G12D), absolute EC50, read-out: Ab EC50) was > 3000 nM and the EC50 (AGS; AGS, relative EC50, read-out: Re EC50) was 12 nM. For the same compound, the EC50 (KP-4; KP-4 (K-RAS: G12C), absolute EC50, read-out: Ab EC50) was 15 nM, the EC50 (KP-4; KP-4, relative EC50, read-out: Re EC50) was 15 nM and the “Top Inhibition %” value (KP-4; KP-4, % of top inhibition) was 62.2%. The “Top Inhibition %” value (H358; % of top inhibition) was 57.5%, the EC50 (H358; absolute EC50, read-out: Ab EC50) was 97 nM and the EC50 (H358; relative EC50, read-out: Re EC50) was 4.5 nM. For the same compound, the “Top Inhibition %” value (H441; H441, % of top inhibition) was 50.6%, the EC50 (H441; H441 (K-RAS: G12V), absolute EC50, read-out: Ab EC50) was 1010 nM and the EC50 (H441; H441, relative EC50, read-out: Re EC50) was 2.4 nM. The inhibition at 0.001 µM [2] was < 10%.
